11 compounds from US8614218B2, “Fused bicyclic pyrimidines” (Bayer Intellectual Property GmbH, priority 2007, dated 2013) can be followed below.

Where only a bound is given, the exact number is not on record here.

This assay concerns phospho-Akt (Ser473). Description: Cellular PI3K/Akt pathway assay (phospho-Akt ELISA). To be noted: Homo sapiens, MCF7 cells, β-Heregulin stimulated, 48 h incubation. It is filed as cell-based. The source says:
Cellular PI3K/Akt Pathway Assay
In order to study the cellular activity of the compounds according to the present invention, an Enzyme Linked Immunosorbent Assay (ELISA)-based assay has been used specific phospho-AKT. The assay is based on a Sandwich ELISA kit (PathScan™ Phospho-Akt1 (Ser473); Cell Signaling, USA; #7160). The ELISA Kit detects endogenous levels of phosphorylated Akt protein. A phospho-Akt (Ser473) antibody (Cell Signaling, USA; #9271) has been coated onto the microwells. After incubation with cell lysates, the coated antibody captures the phosphorylated Akt protein. Following extensive washing, Akt1 monoclonal antibody (Cell Signaling, USA; #2967) is added to detect the captured phospho-Akt1 protein. HRP-linked anti-mouse antibody (HRP: horseradish peroxidase; Cell Signaling, USA; #7076) is then used to recognize the bound detection antibody. HRP substrate (=3,3′,5,5′-tetramethylbenzidine (TMB); Cell Signaling, USA; #7160) is added to develop colour. The magnitude of optical density for this developed color is proportional to the quantity of phosphorylated Akt protein.
MCF7 cells (ATCC HTB-22) are seeded into 96 well fate bottom plates at a density of 10000 cells/well. 24 hours after seeding, the cells are serum starved using low-serum medium (IMEM media including 0.1% charcoal treated FCS (FCS: fetal calf serum)). After 24 hours 1 μl each of the compound dilutions (test compounds were dissolved as 10 mM solutions in dimethylsulfoxide (DMSO) and subsequently diluted) are added into each well of the 96 well plates and incubated for 48 h at 37° C. in a humidified atmosphere containing 5% CO2. To stimulate Akt phosphorylation, β-Heregulin (20 ng/ml β-HRG) is added in parallel to the compounds. Wells containing unstimulated control cells (no β-Heregulin stimulation) are incubated with or without the diluted compound. Wells containing untreated control cells (no compound) are filled with medium containing 0.5% v:v DMSO and are or are not stimulated with β-Heregulin.
Cells are harvested and lysed with brief sonification in 1× cell lysis buffer (20 mM Tris (pH7.5), 150 mM NaCl, 1 mM ethylene diaminetetraacetate (EDTA), 1 mM ethylene glycolbis(2-aminoethyl)-N,N,N′,N′-tetraacetic acid (EGTA), 1 vol % Triton X-100, 2.5 mM sodium pyrophosphate, 1 mM β-glycerolphosphate, 1 mM Na3VO4, 1 μg/ml leupeptin). The lysate is centrifuged for 10 min. at 4° C. and the supernatant is transferred to a new tube. 100 μl of sample diluent (0.1 vol % Tween-20, 0.1 vol % sodium azide in phosphate buffered saline (PBS)) are added to a microcentrifuge tube and 100 μl of cell lysate are transferred into the tube and vortexed. 100 μl of each diluted cell lysate are added to the appropriate ELISA well, and incubated overnight at 4° C. The plates are washed 4 times with 1× wash buffer (1 vol % tween-20, 0.33 vol % thymol, in PBS). Next 100 μl of detection antibody (Akt1 (2H10) monoclonal detection antibody; Cell Signaling, USA; #2967) are added to each well and incubation continued for 1 h at 37° C. The washing procedure is repeated between each step. 100 μl of secondary antibody (anti-mouse IgG HRP-linked antibody; Cell Signaling, USA; #7076) are added to each well and incubated for 30 min. at 37° C. Than, 100 μl of TMB substrate (0.05% 3,3′,5,5′ tetramethylbenzidine, 0.1% hydrogen peroxide, complex polypeptides in a buffered solution; Cell Signaling, USA; #7160) are added to each well and incubated for 30 min. at 25° C. Finally 100 μl of STOP solution (0.05 vol % α and β unsaturated carbonyl compound) are added to each well and the plate are shaked gently. The absorbance is measured at λ=450 nm (Wallac Victor2; Perkin Elmer, USA) within 30 min. after adding the STOP solution. The analysis of the data is performed using a statistical program (Excel; Microsoft, USA). Preferred compounds show an inhibitory activity towards Akt phosphorylation below 10 μM.
(In general: An ELISA detects its analyte on a solid surface through an enzyme-linked reagent.)

Broadly, the IC50 is the midpoint of a concentration-inhibition curve. In turn, `CC(c1ccc(-c2nc3nccn3cc2-c2ccccc2)cc1)N1CCC(c2n[nH]c(-c3ccccn3)n2)CC1` (racemic) [Example 23, 6-phenyl-7-(4-{1-[4-(5-pyridin-2-yl-1H-1,2,4-triazol-3-yl)piperidin-1-yl]ethyl}phenyl)imidazo[1,2-a]pyrimidine] gave an IC50 of less than 1000 nM. Under `Brc1cnn2cc(-c3ccccc3)c(-c3ccc(CN4CCC(c5n[nH]c(-c6ccccn6)n5)CC4)cc3)nc12` [Example 31, 3-Bromo-6-phenyl-5-(4-{[4-(5-pyridin-2-yl-1H-1,2,4-triazol-3-yl)piperidin-1-yl]methyl}phenyl)pyrazolo[1,5-a]pyrimidine] stands less than 1000 nM; under `C#Cc1cnn2cc(-c3ccccc3)c(-c3ccc(CN4CCC(c5n[nH]c(-c6ccccn6)n5)CC4)cc3)nc12` [Example 33, 3-Ethynyl-6-phenyl-5-(4-{[4-(5-pyridin-2-yl-1H-1,2,4-triazol-3-yl)piperidin-1-yl]methyl}phenyl)pyrazolo[1,5-a]pyrimidine], less than 1000 nM; under `N#Cc1cnn2cc(-c3ccccc3)c(-c3ccc(CN4CCC(c5n[nH]c(-c6ccccn6)n5)CC4)cc3)nc12` [Example 32, 6-Phenyl-5-(4-{[4-(5-pyridin-2-yl-1H-1,2,4-triazol-3-yl)piperidin-1-yl]methyl}phenyl)pyrazolo[1,5-a]pyrimidine-3-carbonitrile], less than 1000 nM.

As to `Cc1ccnc(-c2nc(C3CCN(Cc4ccc(-c5nc6nccn6cc5-c5ccccc5)cc4)CC3)n[nH]2)c1` [Example 35, 7-[4-({4-[5-(4-Methylpyridin-2-yl)-1H-1,2,4-triazol-3-yl]piperidin-1-yl}methyl)phenyl]-6-phenylimidazo[1,2-a]pyrimidine], the IC50 is less than 1000 nM. Under `Clc1cnn2cc(-c3ccccc3)c(-c3ccc(CN4CCC(c5n[nH]c(-c6ccccn6)n5)CC4)cc3)nc12` [Example 30, 3-Chloro-6-phenyl-5-(4-{[4-(5-pyridin-2-yl-1H-1,2,4-triazol-3-yl)piperidin-1-yl]methyl}phenyl)pyrazolo[1,5-a]pyrimidine] stands less than 1000 nM. The compound `CCc1nc2nc(-c3ccc(CN4CCC(c5n[nH]c(-c6ccccn6)n5)CC4)cc3)c(-c3ccccc3)cn2n1` [Example 40, 2-Ethyl-6-phenyl-5-(4-{[4-(5-pyridin-2-yl-1H-1,2,4-triazol-3-yl)piperidin-1-yl]methyl}phenyl)[1,2,4]triazolo[1,5-a]pyrimidine] gave an IC50 of less than 1000 nM. In the case of `Cc1cccc(-c2nc(C3CCN(Cc4ccc(-c5nc6nccn6cc5-c5ccccc5)cc4)CC3)n[nH]2)n1` [Example 36, 7-[4-({4-[5-(6-Methylpyridin-2-yl)-1H-1,2,4-triazol-3-yl]piperidin-1-yl}methyl)phenyl]-6-phenylimidazo[1,2-a]pyrimidine], the IC50 is less than 1000 nM. Next, `Fc1cnc2nc(-c3ccc(CN4CCC(c5n[nH]c(-c6cnccn6)n5)CC4)cc3)c(-c3ccccc3)cn12` [Example 24, 3-fluoro-6-phenyl-7-(4-{[4-(5-pyrazin-2-yl-1,2,4-triazol-3-yl)piperidin-1-yl]methyl}phenyl)imidazo[1,2-a]pyrimidine]: less than 1000 nM; `Fc1cnc2nc(-c3ccc(CN4CCC(c5n[nH]c(-c6ncccn6)n5)CC4)cc3)c(-c3ccccc3)cn12` [Example 25, 3-fluoro-6-phenyl-7-(4-{[4-(5-pyrimidin-2-yl-1H-1,2,4-triazol-3-yl)piperidin-1-yl]methyl}phenyl)imidazo[1,2-a]pyrimidine]: less than 1000 nM; `CCc1cnn2cc(-c3ccccc3)c(-c3ccc(CN4CCC(c5n[nH]c(-c6ccccn6)n5)CC4)cc3)nc12` [Example 34, 3-Ethyl-6-phenyl-5-(4-{[4-(5-pyridin-2-yl-1H-1,2,4-triazol-3-yl)piperidin-1-yl]methyl}phenyl)pyrazolo[1,5-a]pyrimidine]: less than 1000 nM.
